Reference: the NIST ThermoML archive (doi:10.1021/je049807n)

Experiments:
[1] = xn = mol fraction of the nth substance listed; settings: 298.15 K; for surface tension liquid-gas: Pendant drop shape; for mass density: 101.3 kPa, Liquid
[2] = for surface tension liquid-gas: Pendant drop shape; for mass density: 101.33 kPa, Liquid

Cc1cc(C)cc(C)c1 [1,3,5-trimethylbenzene] + CCCCO
[1]
Settings | mass density [kg/m3] | surface tension liquid-gas [mN/m]
x2 = 0.0493 | 858.72 | –
x2 = 0.1006 | 856.4 | 27.92
x2 = 0.1512 | 854.14 | –
x2 = 0.2011 | 851.93 | 27.65
x2 = 0.2514 | 849.67 | –
x2 = 0.3002 | 847.43 | 27.33
x2 = 0.3487 | 845.16 | –
x2 = 0.4003 | 842.68 | 26.91
x2 = 0.4535 | 840.04 | –
x2 = 0.5001 | 837.66 | 26.46
x2 = 0.5484 | 835.11 | –
x2 = 0.6005 | 832.26 | 25.99
x2 = 0.65 | 829.43 | –
x2 = 0.6993 | 826.54 | 25.53
x2 = 0.7497 | 823.44 | –
x2 = 0.7999 | 820.23 | 25.05
x2 = 0.85 | 816.86 | –
x2 = 0.901 | 813.3 | 24.58
x2 = 0.9506 | 809.67 | –

Cc1cc(C)cc(C)c1 [1,3,5-trimethylbenzene] + CC(C)(C)O
[1]
Settings | mass density [kg/m3] | surface tension liquid-gas [mN/m]
x2 = 0.0502 | 857.2 | –
x2 = 0.1015 | 853.43 | 27.18
x2 = 0.1482 | 850.08 | –
x2 = 0.2007 | 846.28 | 26.24
x2 = 0.2509 | 842.63 | –
x2 = 0.2995 | 839.02 | 25.35
x2 = 0.3484 | 835.31 | –
x2 = 0.3995 | 831.37 | 24.51
x2 = 0.449 | 827.48 | –
x2 = 0.4992 | 823.4 | 23.75
x2 = 0.5483 | 819.43 | –
x2 = 0.6005 | 815.1 | 23.02
x2 = 0.6502 | 810.91 | –
x2 = 0.6987 | 806.81 | 22.32
x2 = 0.75 | 802.48 | –
x2 = 0.7995 | 798.32 | 21.61
x2 = 0.8501 | 793.99 | –
x2 = 0.9002 | 789.58 | 20.86
x2 = 0.9509 | 785.25 | –

Cc1cc(C)cc(C)c1 [1,3,5-trimethylbenzene] + CCC(C)O
[1]
Settings | mass density [kg/m3] | surface tension liquid-gas [mN/m]
x2 = 0.0508 | 858.12 | –
x2 = 0.101 | 855.38 | 27.77
x2 = 0.1511 | 852.75 | –
x2 = 0.2007 | 850.14 | 27.36
x2 = 0.25 | 847.61 | –
x2 = 0.2986 | 845.03 | 26.94
x2 = 0.3488 | 842.36 | –
x2 = 0.4007 | 839.55 | 26.47
x2 = 0.4495 | 836.88 | –
x2 = 0.5017 | 833.96 | 25.99
x2 = 0.5484 | 831.33 | –
x2 = 0.6004 | 828.33 | 25.49
x2 = 0.6508 | 825.34 | –
x2 = 0.6991 | 822.4 | 24.98
x2 = 0.7496 | 819.25 | –
x2 = 0.8009 | 816.01 | 24.45
x2 = 0.8504 | 812.75 | –
x2 = 0.9002 | 809.42 | 23.94
x2 = 0.9505 | 805.99 | –

Cc1ccc(C)c(C)c1 [1,2,4-trimethylbenzene] + CCC(C)O
[1]
Settings | mass density [kg/m3] | surface tension liquid-gas [mN/m]
x2 = 0.0497 | 868.48 | –
x2 = 0.1008 | 865.35 | 28.58
x2 = 0.1486 | 862.53 | –
x2 = 0.201 | 859.43 | 27.94
x2 = 0.2507 | 856.46 | –
x2 = 0.2985 | 853.6 | 27.32
x2 = 0.3492 | 850.47 | –
x2 = 0.4008 | 847.25 | 26.71
x2 = 0.4506 | 844.12 | –
x2 = 0.4997 | 840.93 | 26.15
x2 = 0.5486 | 837.68 | –
x2 = 0.6008 | 834.12 | 25.59
x2 = 0.6505 | 830.64 | –
x2 = 0.6994 | 827.12 | 25.07
x2 = 0.7503 | 823.25 | –
x2 = 0.7999 | 819.39 | 24.56
x2 = 0.8496 | 815.42 | –
x2 = 0.9002 | 811.21 | 24.02
x2 = 0.9489 | 806.96 | –

CC(C)CO [2-methyl-1-propanol]
[2], 298.15 K
Settings | mass density [kg/m3] | surface tension liquid-gas [mN/m]
– | 797.83 | 22.3

Cc1cc(C)cc(C)c1 [1,3,5-trimethylbenzene]
[2], 298.15 K
Settings | mass density [kg/m3] | surface tension liquid-gas [mN/m]
– | 861.03 | 28.09

Cc1ccc(C)c(C)c1 [1,2,4-trimethylbenzene] + CC(C)(C)O
[1]
Settings | mass density [kg/m3] | surface tension liquid-gas [mN/m]
x2 = 0.0498 | 867.42 | –
x2 = 0.1 | 863.45 | 28.12
x2 = 0.1496 | 859.56 | –
x2 = 0.2007 | 855.56 | 27
x2 = 0.2495 | 851.7 | –
x2 = 0.3001 | 847.58 | 25.92
x2 = 0.351 | 843.33 | –
x2 = 0.4002 | 839.16 | 24.93
x2 = 0.4496 | 834.81 | –
x2 = 0.5005 | 830.25 | 24.06
x2 = 0.5494 | 825.78 | –
x2 = 0.6006 | 821.1 | 23.23
x2 = 0.6502 | 816.48 | –
x2 = 0.6991 | 811.94 | 22.46
x2 = 0.7491 | 807.12 | –
x2 = 0.7993 | 802.21 | 21.7
x2 = 0.85 | 797.46 | –
x2 = 0.9003 | 791.86 | 20.96
x2 = 0.9499 | 786.65 | –

CCCCO [butan-1-ol]
[2], 298.15 K
Settings | mass density [kg/m3] | surface tension liquid-gas [mN/m]
– | 805.8 | 24.18

CCC(C)O (configuration not stated) [butan-2-ol]
[2]
Settings | mass density [kg/m3] | surface tension liquid-gas [mN/m]
298.15 K | 802.34 | 23.46
303.15 K | – | 22.14

Cc1ccc(C)c(C)c1 [1,2,4-trimethylbenzene]
[2], 298.15 K
Settings | mass density [kg/m3] | surface tension liquid-gas [mN/m]
– | 871.64 | 29.25

Cc1ccc(C)c(C)c1 [1,2,4-trimethylbenzene] + CCCCO
[1]
Settings | mass density [kg/m3] | surface tension liquid-gas [mN/m]
x2 = 0.0499 | 869.1 | –
x2 = 0.1013 | 866.38 | 28.81
x2 = 0.1492 | 863.89 | –
x2 = 0.2002 | 861.22 | 28.42
x2 = 0.2499 | 858.58 | –
x2 = 0.2992 | 855.92 | 28.04
x2 = 0.3503 | 853.09 | –
x2 = 0.4009 | 850.22 | 27.61
x2 = 0.4491 | 847.4 | –
x2 = 0.5012 | 844.25 | 27.15
x2 = 0.5498 | 841.19 | –
x2 = 0.5985 | 838.02 | 26.65
x2 = 0.6501 | 834.53 | –
x2 = 0.6987 | 831.1 | 26.08
x2 = 0.7499 | 827.34 | –
x2 = 0.8001 | 823.46 | 25.49
x2 = 0.8501 | 819.4 | –
x2 = 0.9002 | 815.1 | 24.86
x2 = 0.9503 | 810.56 | –

Cc1cc(C)cc(C)c1 [1,3,5-trimethylbenzene] + CC(C)CO
[1]
Settings | mass density [kg/m3] | surface tension liquid-gas [mN/m]
x2 = 0.0512 | 858.13 | –
x2 = 0.1028 | 855.39 | 27.65
x2 = 0.1517 | 852.81 | –
x2 = 0.1994 | 850.26 | 27.21
x2 = 0.2514 | 847.49 | –
x2 = 0.3006 | 844.78 | 26.67
x2 = 0.3529 | 841.86 | –
x2 = 0.4019 | 839.03 | 26.09
x2 = 0.4494 | 836.25 | –
x2 = 0.4995 | 833.24 | 25.51
x2 = 0.548 | 830.3 | –
x2 = 0.6002 | 827.02 | 24.88
x2 = 0.6495 | 823.78 | –
x2 = 0.699 | 820.47 | 24.25
x2 = 0.7501 | 816.96 | –
x2 = 0.7998 | 813.38 | 23.61
x2 = 0.8504 | 809.65 | –
x2 = 0.9006 | 805.81 | 22.97
x2 = 0.9485 | 802.06 | –

Cc1ccc(C)c(C)c1 [1,2,4-trimethylbenzene] + CC(C)CO
[1]
Settings | mass density [kg/m3] | surface tension liquid-gas [mN/m]
x2 = 0.0509 | 868.47 | –
x2 = 0.1004 | 865.43 | 28.42
x2 = 0.153 | 862.28 | –
x2 = 0.2018 | 859.33 | 27.54
x2 = 0.249 | 856.45 | –
x2 = 0.3002 | 853.23 | 26.7
x2 = 0.3487 | 850.09 | –
x2 = 0.3996 | 846.71 | 25.95
x2 = 0.4494 | 843.33 | –
x2 = 0.4995 | 839.86 | 25.29
x2 = 0.5488 | 836.34 | –
x2 = 0.6002 | 832.59 | 24.72
x2 = 0.6508 | 828.75 | –
x2 = 0.6989 | 824.99 | 24.16
x2 = 0.7484 | 820.99 | –
x2 = 0.8002 | 816.62 | 23.6
x2 = 0.8506 | 812.2 | –
x2 = 0.8984 | 807.85 | 22.98
x2 = 0.9496 | 802.94 | –

CC(C)(C)O [2-methylpropan-2-ol]
[2], 298.15 K
Settings | mass density [kg/m3] | surface tension liquid-gas [mN/m]
– | 780.85 | 20.13
